Series [1] is described as follows: Solubility of fullerenic species and their derivatives in solvents. The following applies: for solubility of derivative in organic solvents: common polar and non-polar organic solvents; for solubility class: both non-polar and polar solvents. The format is physicochemical. The text has this:
Insoluble fullerenes are any fullerenic species generated by any known method which are not soluble in solvents (common solvents, i.e., non-polar organic solvents, such as hydrocarbons and arenes and halogenated arenes, including toluene, benzene) commonly employed to solublize fullerenes, such as C60. Solubility (or lack thereof) of a given fullerenic species in a given solvent can be assessed by methods known in the art, e.g., by assessing how much of a fullerenic species can be extracted into a given amount of solvent, for example, using mass spectrometric methods as illustrated herein. The insoluble classes of fullerenes are also insoluble in polar solvents. […] Non-derivatized fullerenic species are in general not soluble in almost all polar solvents. However, fullerenic species, if soluble have an anomalously high solubility in polar chloro and bromo substituted arenes. As discussed herein and as is understood in the art certain classes of non-derivatized fullerenic species are soluble in non-polar solvents such as toluene and benzene.
The methods of this invention can be used to derivatize insoluble fullerenic species and related carbon nanotube species to make them soluble (or to enhance the solubility of given fullerenic species or carbon nanotubes). Derivatization reaction of this invention may render the derivatized species soluble (or enhance its solubility) in common non-polar solvents or it may render the derivatized species soluble (or enhance its solubility) in polar solvents. For purposes of this application, solubility is defined as the dissolution of free molecules (or salts) in the solvent with reversibility to remove the solvent to obtain the molecules (or salts) dissolved. In preferred cases, the solvent is readily removed by application of reduced pressure and/ or by non-destructive heating. A species may also be removed from solution by recrystallization, for example by addition of solvent in which the species is not soluble to the solution. Certain solvents may readily dissolve a given species, but may not be removable to regenerate the species that was dissolved or it may not be possible to recrystallize the species unchanged. For example, the solvent may only be partially removable or the solvent may have reacted with the species causing a chemical change or irreversible adduct formation.
In general, fullerenes have “low solubility” in all solvents compared to most organic compounds. […] C60 is insoluble in polar solvents like acetonitrile and methanol (no measurable amount dissolves). […] C60 is soluble in substituted naphthalenes (30 to 50 mg/mL). […] As noted above, insoluble classes of fullerenic species are also insoluble in polar solvents.

Series [2] in a line: Air/water stability of derivatized materials (long-term stability of solutions, re-dissolution of exposed solids). The format is physicochemical. The following applies: presence of oxygen and/or water; no evidence for decomposition over several months time.
The nature of series [3]: Aqueous-phase size-exclusion chromatography (SEC-HPLC), aggregation. It counts as physicochemical. How it is done: This derivatized metallofullerene, Gd@C60(C(COOCH2CH3)2)x, can be converted to a water-soluble species by de-esterification to carboxylic acid or carboxylate salt groups. This is performed by the method of Hirsch (Lamparth, 1994). The ester derivative (100 mg) is dissolved in toluene (15 mL) and vigorously stirred at reflux with excess solid NaH (100 mg) under argon for 2-3 hours. Next, methanol (3 mL) is added with stirring. Vigorous bubbling is observed, followed by precipitation of the sodium carboxylate salt of the Gd@C60 derivative. The solid is isolated, dissolved in water, and partially purified with dialysis tubing (MW cutoff˜500). The water is removed from an aqueous solution of the carboxylate with a rotary evaporator connected to a vacuum source; it is important to avoid decarboxylation by heating gently (<50° C.). Lowering the pH of aqueous solutions of the carboxylate salt can produce the acid form, which may have less water solubility depending on the number of acid groups present. […] Ion-exchange resin (Dowex-50, etc. etc.) can be used to change the counterion in Gd@C60(C(COONa)2)x to other alkali metals etc. or to hydrogen (proton) i.e. Gd@C60(C(COOH)2)x.
Background: SEC sorts molecules by how far they enter the pores of the column.

For series [4] the following is noted: aqueous; compared with conventional inorganic chelates; cited from earlier work.

Take Gd@C60(C(COOCH2CH3)2)x: the “solubility of derivative in organic solvents” value in series [1] was “solubility in a variety of common polar and non-polar organic solvents”. For the same substance, in series [2], the “stability in air / oxygen and water” value is reported as “air-stable”.

Regarding Gd@C60, the solubility class result in series [1] was “Insoluble”.

As to C60(C33H48O12), in series [1], the “solubility of derivative in organic solvents” value was “solubility in a variety of common polar and non-polar organic solvents”.

Regarding Gd@C60(C(COONa)2)x, the water solubility entry in series [1] was “fully water-soluble”. The “stability in air / oxygen and water” value in series [2] was “air-stable”. Besides, in series [3], the “aggregation state in aqueous solution” value is listed as “not clustered in large aggregates”. Take ^166Ho@C60(C(COOCH2CH3)2)x: the “solubility in THF after derivatization” value in series [1] (tetrahydrofuran) is recorded as “soluble”. Take Gd@C82: the solubility class entry in series [1] is recorded as “Slightly Soluble”. In the case of ^166Ho@C60(C(COONa)2)x, in series [1], the water solubility result is reported as “water soluble”. Take Gd@C82(OH)x: in series [4], the R1 relaxivity result was “higher R1 values”. With Gd@C60(C(COOH)2)x, the “stability in air / oxygen and water” value in series [2] is reported as “air-stable”.

Values taken from patent US7671230B2, “Derivatization and solubilization of insoluble classes of fullerenes” (TDA Research, Inc., priority 2001, dated 2010).
